Measurements from patent US20250179047A1, “5-[7-(3,4-DIHYDRO-1H-ISOQUINOLINE-2-CARBONYL)-1,2,3,4 TETRAHYDROISOQUINOLIN-6-YL]-1H-PYRROLE-3-CARBOXAMIDE DERIVATIVES, PHARMACEUTICAL COMPOSITIONS CONTAINING THEM AND THEIR USES AS PRO-APOPTOTIC AGENTS” (LES LABORATOIRES SERVIER, priority 2022, published 2025).

Key:
BCLXL WT = BCLXL WT (Homo sapiens (Human), UniProt Q07817); experiment: TR-FRET competitive binding assay, BCLXL WT; settings: for Ki: BCLXL WT, Ki determined from IC50, read-out: TR_FRET EKI BclxL; for TR_FRET EKI BCLxL/WT selectivty ratio: ratio Ki BCLxL / Ki BCL2 WT
In short: (§1)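 Competitive TR-FRET displacement of fluorescein-PUMA peptide (2 or 20 nM) from 0.5 nM terbium-labelled N-terminal Halo-fusion BCL2 (1-207, wild type or mutant) or BCLXL (2-196), expressed in E. coli. Buffer 50 mM Hepes pH 7.5, 150 mM NaCl, 5% DMSO; 2 h at 23°C. 520/495 nm ratio fitted over 11 points for IC50, converted to Ki.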

KMS-12-PE Bcl-2 WT = experiment: In vitro cytotoxicity CellTiter-Glo 48 h, KMS-12-PE Bcl-2 WT; type: cell-based; settings: Homo sapiens, KMS-12-PE, C50 = concentration needed to reach 50% of the cellular viability
In short: (§2)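 KMS-12-PE myeloma cells lentivirally transduced with Bcl-2 WT or G101V (TagRFP-sorted), exposed to compound 11-point dose-response for 48 h at 37 °C, 5% CO2. Viability read by CellTiter-Glo ATP luminescence; C50 is the concentration giving 50% cellular viability.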

BCL2 D103Y = BCL2 D103Y (Homo sapiens, UniProt P10415, D103Y); experiment: TR-FRET competitive binding assay, BCL2 D103Y; settings: Ki determined from IC50, read-out: TR_FRET EKI_Bcl2 D103Y
In short: as §1

BCL2 WT = BCL2 WT (Homo sapiens (Human), UniProt P10415); experiment: TR-FRET competitive binding assay, BCL2 WT; settings: Ki determined from IC50, read-out: TR_FRET EKI_Bcl2 WT
In short: as §1

BCL2 G101V [1] = target: BCL2 G101V (Homo sapiens, UniProt P10415, G101V); experiment: TR-FRET competitive binding assay, BCL2 G101V; settings: BCL2 G101V; Ki determined from IC50; read-out: TR_FRET EKI_Bcl2 G101V
In short: as §1

BCL2 G101V [2] = experiment: TR-FRET competitive binding assay, BCL2 G101V; parameters: species or system human; settings: ratio Ki BCL2 G101V / Ki BCL2 WT
In short: as §1

KMS-12-PE Bcl-2 G101V = experiment: In vitro cytotoxicity CellTiter-Glo 48 h, KMS-12-PE Bcl-2 G101V; type: cell-based; settings: for Ratio (G101V/WT): C50 KMS-12-PE Bcl-2 G101V over C50 KMS-12-PE Bcl-2 WT; for IC50: Homo sapiens, KMS-12-PE, 48 h, CellTiter-Glo, C50 = concentration needed to reach 50% of the cellular viability
In short: as §2

Chain of BCLXL WT (Q07817 other isoform, or with tags, fused parts or gaps): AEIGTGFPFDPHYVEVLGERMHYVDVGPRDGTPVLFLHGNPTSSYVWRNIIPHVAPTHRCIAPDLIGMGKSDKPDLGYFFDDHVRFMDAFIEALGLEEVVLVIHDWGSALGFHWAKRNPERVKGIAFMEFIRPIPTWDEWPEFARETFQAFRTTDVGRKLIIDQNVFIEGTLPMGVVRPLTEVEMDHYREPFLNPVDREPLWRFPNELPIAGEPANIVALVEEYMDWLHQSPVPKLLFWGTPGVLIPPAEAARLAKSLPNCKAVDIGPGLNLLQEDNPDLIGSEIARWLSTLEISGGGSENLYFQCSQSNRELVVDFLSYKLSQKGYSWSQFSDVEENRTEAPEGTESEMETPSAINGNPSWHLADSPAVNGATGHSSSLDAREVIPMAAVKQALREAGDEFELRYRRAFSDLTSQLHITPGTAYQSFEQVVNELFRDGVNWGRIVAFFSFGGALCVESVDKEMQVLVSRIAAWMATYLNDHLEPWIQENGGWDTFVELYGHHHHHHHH

SMILES | Ki (BCLXL WT) | TR_FRET EKI BCLxL/WT selectivty ratio (BCLXL WT) | Ki (BCL2 D103Y) | Ki (BCL2 WT) | Ki (BCL2 G101V [1]) | TR_FRET EKI G101V/WT selectivty ratio (BCL2 G101V [2]) | IC50 (KMS-12-PE Bcl-2 WT) | Ratio (G101V/WT) (KMS-12-PE Bcl-2 G101V) | IC50 (KMS-12-PE Bcl-2 G101V)
Cc1c(N(C(=O)c2cc(-c3cc4c(cc3C(=O)N3Cc5ccccc5C[C@H]3C)CN(C(=O)Cc3ccc(OCCN5CCN(CC(F)(F)F)CC5)cc3)CC4)n(C)c2C)c2ccc(O)cc2)cc(C#N)n1C [Example 32, N-(5-cyano-1,2-dimethyl-1H-pyrrol-3-yl)-N-(4-hydroxyphenyl)-1,2-dimethyl-5-{7-[(3R)-3-methyl-1,2,3,4-tetrahydroisoquinoline-2-carbonyl]-2-[2-(4-{2-[4-(2,2,2-trifluoroethyl)piperazin-1-yl]ethoxy}phenyl)acetyl]-1,2,3,4-tetrahydroisoquinolin-6-yl}-1H-pyrrole-3-carboxamide] | 6.7 nM | 10.5 | 1.04 nM | 0.64 nM | 1.7 nM | 2.6 | 0.0073 µM | 5.38 | 0.0393 µM
Cc1c(N(C(=O)c2cc(-c3cc4c(cc3C(=O)N3Cc5ccccc5C[C@H]3C)CN(C(=O)Cc3ccc(OCCN5CC6(CCS6(=O)=O)C5)cc3)CC4)n(C)c2C)c2ccc(O)cc2)cc(C#N)n1C [Example 37, N-(5-cyano-1,2-dimethyl-1H-pyrrol-3-yl)-5-(2-{2-[4-(2-{1,1-dioxo-1λ^6-thia-6-azaspiro[3.3]heptan-6-yl}ethoxy)phenyl]acetyl}-7-[(3R)-3-methyl-1,2,3,4-tetrahydroisoquinoline-2-carbonyl]-1,2,3,4-tetrahydroisoquinolin-6-yl)-N-(4-hydroxyphenyl)-1,2-dimethyl-1H-pyrrole-3-carboxamide] | 1.3 nM | 13.0 | 0.28 nM | 0.1 nM | 0.3 nM | 2.7 | 0.0174 µM | 5.36 | 0.0932 µM
Cc1c(N(C(=O)c2cc(-c3cc4c(cc3C(=O)N3Cc5ccccc5C[C@H]3C)CN(C(=O)Cc3ccc(N5CCN6CC(F)(F)C[C@H]6C5)cc3F)CC4)n(C)c2C)c2ccc(O)cc2)cc(C#N)n1C [Example 40, 5-[2-(2-{4-[(8aS)-7,7-difluoro-hexahydropyrrolo[1,2-a]piperazin-2-yl]-2-fluorophenyl}acetyl)-7-{[(3R)-3-methyl-3,4-dihydro-1H-isoquinolin-2-yl]carbonyl}-3,4-dihydro-1H-isoquinolin-6-yl]-N-(5-cyano-1,2-dimethylpyrrol-3-yl)-N-(4-hydroxyphenyl)-1,2-dimethylpyrrole-3-carboxamide] | 7 nM | 10.3 | 2.11 nM | 0.68 nM | 3 nM | 4.4 | 0.0094 µM | 4.54 | 0.0426 µM
CCn1c(C#N)cc(N(C(=O)c2cc(-c3cc4c(cc3C(=O)N3Cc5ccccc5C[C@H]3C)CN(C(=O)Cc3ccc(OCCN5CCOCC5)cc3)CC4)n(C)c2C)c2ccc(O)cc2)c1C [Example 41, N-(5-cyano-1-ethyl-2-methyl-pyrrol-3-yl)-N-(4-hydroxyphenyl)-1,2-dimethyl-5-[7-[(3R)-3-methyl-3,4-dihydro-1H-isoquinoline-2-carbonyl]-2-[2-[4-(2-morpholinoethoxy)phenyl]acetyl]-3,4-dihydro-1H-isoquinolin-6-yl]pyrrole-3-carboxamide] | 2 nM | 16.7 | 0.55 nM | 0.12 nM | 0.4 nM | 3.1 | 0.0094 µM | 5.41 | 0.051 µM
Cc1c(N(C(=O)c2cc(-c3cc4c(cc3C(=O)N3Cc5ccccc5C[C@H]3C)CN(C(=O)Cc3ccc(OCCN5CC(F)C5)cc3)CC4)n(C)c2C)c2ccc(O)cc2)cc(C#N)n1C [Example 49, N-(5-cyano-1,2-dimethyl-1H-pyrrol-3-yl)-5-[2-(2-{4-[2-(3-fluoroazetidin-1-yl)ethoxy]phenyl}acetyl)-7-[(3R)-3-methyl-1,2,3,4-tetrahydroisoquinoline-2-carbonyl]-1,2,3,4-tetrahydroisoquinolin-6-yl]-N-(4-hydroxyphenyl)-1,2-dimethyl-1H-pyrrole-3-carboxamide] | 1.3 nM | 13.0 | 0.17 nM | 0.1 nM | 0.2 nM | 2.3 | 0.0118 µM | 5.91 | 0.0697 µM

The next lines start with results.

Ki (BCLXL WT) | TR_FRET EKI BCLxL/WT selectivty ratio (BCLXL WT) | Ki (BCL2 D103Y) | Ki (BCL2 WT) | Ki (BCL2 G101V [1]) | TR_FRET EKI G101V/WT selectivty ratio (BCL2 G101V [2]) | SMILES | IC50 (KMS-12-PE Bcl-2 WT) | Ratio (G101V/WT) (KMS-12-PE Bcl-2 G101V) | IC50 (KMS-12-PE Bcl-2 G101V)
2.3 nM | 11.0 | 0.51 nM | 0.21 nM | 1.7 nM | 8.1 | Cc1c(N(C(=O)c2cc(-c3cc4c(cc3C(=O)N3Cc5ccccc5C[C@H]3C)CN(Cc3cc5ccccc5cn3)CC4)n(C)c2C)c2ccc(O)cc2)cc(C#N)n1C [Example 58, N-(5-cyano-1,2-dimethylpyrrol-3-yl)-N-(4-hydroxyphenyl)-5-[2-(isoquinolin-3-ylmethyl)-7-{[(3R)-3-methyl-3,4-dihydro-1H-isoquinolin-2-yl]carbonyl}-3,4-dihydro-1H-isoquinolin-6-yl]-1,2-dimethylpyrrole-3-carboxamide] | 0.005 µM | 7.95 | 0.0396 µM
3 nM | 19.1 | 0.4 nM | 0.16 nM | 0.7 nM | 4.6 | Cc1c(N(C(=O)c2cc(-c3cc4c(cc3C(=O)N3Cc5ccccc5C[C@H]3C)CN(C(=O)Cc3ccc(OCCC5CCOCC5)nc3)CC4)n(C)c2C)c2ccc(O)cc2)cc(C#N)n1C [Example 59, N-(5-cyano-1,2-dimethyl-1H-pyrrol-3-yl)-N-(4-hydroxyphenyl)-1,2-dimethyl-5-{7-[(3R)-3-methyl-1,2,3,4-tetrahydroisoquinoline-2-carbonyl]-2-(2-{6-[2-(oxan-4-yl)ethoxy]pyridin-3-yl}acetyl)-1,2,3,4-tetrahydroisoquinolin-6-yl}-1H-pyrrole-3-carboxamide] | 0.0064 µM | 5.15 | 0.0331 µM
2.8 nM | 25.5 | 0.79 nM | 0.11 nM | 0.5 nM | 4.5 | Cc1c(C(=O)N(c2ccc(O)cc2)c2cc(C#N)n(C(C)C)c2C)cc(-c2cc3c(cc2C(=O)N2Cc4ccccc4C[C@H]2C)CN(C(=O)Cc2ccc(OCCN4CCOCC4)cc2)CC3)n1C [Example 64, N-(5-cyano-1-isopropyl-2-methyl-pyrrol-3-yl)-N-(4-hydroxyphenyl)-1,2-dimethyl-5-[7-[(3R)-3-methyl-3,4-dihydro-1H-isoquinoline-2-carbonyl]-2-[2-[4-(2-morpholinoethoxy)phenyl]acetyl]-3,4-dihydro-1H-isoquinolin-6-yl]pyrrole-3-carboxamide] | 0.0156 µM | 4.78 | 0.0745 µM
1.6 nM | 24.6 | 0.23 nM | 0.07 nM | 0.4 nM | 5.7 | COCCn1c(C#N)cc(N(C(=O)c2cc(-c3cc4c(cc3C(=O)N3Cc5ccccc5C[C@H]3C)CN(C(=O)Cc3ccc(OCCN5CCOCC5)cc3)CC4)n(C)c2C)c2ccc(O)cc2)c1C [Example 68, N-[5-cyano-1-(2-methoxyethyl)-2-methyl-pyrrol-3-yl]-N-(4-hydroxyphenyl)-1,2-dimethyl-5-[7-[(3R)-3-methyl-3,4-dihydro-1H-isoquinoline-2-carbonyl]-2-[2-[4-(2-morpholinoethoxy)phenyl]acetyl]-3,4-dihydro-1H-isoquinolin-6-yl]pyrrole-3-carboxamide] | 0.0096 µM | 5.82 | 0.0556 µM
4.3 nM | 17.2 | 0.5 nM | 0.25 nM | 2 nM | 7.9 | Cc1c(N(C(=O)c2cc(-c3cc4c(cc3C(=O)N3Cc5ccccc5C[C@H]3C)CN(C(=O)Cc3cc(F)c(OCCN5CCOCC5)cc3F)CC4)n(C)c2C)c2ccc(O)cc2)cc(C#N)n1C [Example 69, N-(5-cyano-1,2-dimethylpyrrol-3-yl)-5-[2-(2-{2,5-difluoro-4-[2-(morpholin-4-yl)ethoxy]phenyl}acetyl)-7-{[(3R)-3-methyl-3,4-dihydro-1H-isoquinolin-2-yl]carbonyl}-3,4-dihydro-1H-isoquinolin-6-yl]-N-(4-hydroxyphenyl)-1,2-dimethylpyrrole-3-carboxamide] | 0.0047 µM | 9.23 | 0.043 µM
